The source of these data is ChEMBL document CHEMBL6153102, “Rational Design, Synthesis, and Biological Evaluation of Novel c-Met Degraders for Lung Cancer Therapy” (J Med Chem, 2025).

pIC50: −log10 of the molar value. The source made the active and inactive calls. No cut-off for these calls is given here.

The pIC50 is −log10 of the IC50, conventionally taken in molar units.

The target in assay [1] is T1, Protein cereblon/Hepatocyte growth factor receptor (Homo sapiens, UniProt P08581+Q96SW2). Description: PROTAC activity at c-Met/CRBN in human HCT-116 cells assessed as induction of c-Met degradation at 100 nM incubated for 24 hrs by Western blotting analysis relative to control. It counts as cell-based. (In general: Immunoblotting shows a protein as a band on a membrane.)
T1 sequence (P08581 25-1390 limits assumed): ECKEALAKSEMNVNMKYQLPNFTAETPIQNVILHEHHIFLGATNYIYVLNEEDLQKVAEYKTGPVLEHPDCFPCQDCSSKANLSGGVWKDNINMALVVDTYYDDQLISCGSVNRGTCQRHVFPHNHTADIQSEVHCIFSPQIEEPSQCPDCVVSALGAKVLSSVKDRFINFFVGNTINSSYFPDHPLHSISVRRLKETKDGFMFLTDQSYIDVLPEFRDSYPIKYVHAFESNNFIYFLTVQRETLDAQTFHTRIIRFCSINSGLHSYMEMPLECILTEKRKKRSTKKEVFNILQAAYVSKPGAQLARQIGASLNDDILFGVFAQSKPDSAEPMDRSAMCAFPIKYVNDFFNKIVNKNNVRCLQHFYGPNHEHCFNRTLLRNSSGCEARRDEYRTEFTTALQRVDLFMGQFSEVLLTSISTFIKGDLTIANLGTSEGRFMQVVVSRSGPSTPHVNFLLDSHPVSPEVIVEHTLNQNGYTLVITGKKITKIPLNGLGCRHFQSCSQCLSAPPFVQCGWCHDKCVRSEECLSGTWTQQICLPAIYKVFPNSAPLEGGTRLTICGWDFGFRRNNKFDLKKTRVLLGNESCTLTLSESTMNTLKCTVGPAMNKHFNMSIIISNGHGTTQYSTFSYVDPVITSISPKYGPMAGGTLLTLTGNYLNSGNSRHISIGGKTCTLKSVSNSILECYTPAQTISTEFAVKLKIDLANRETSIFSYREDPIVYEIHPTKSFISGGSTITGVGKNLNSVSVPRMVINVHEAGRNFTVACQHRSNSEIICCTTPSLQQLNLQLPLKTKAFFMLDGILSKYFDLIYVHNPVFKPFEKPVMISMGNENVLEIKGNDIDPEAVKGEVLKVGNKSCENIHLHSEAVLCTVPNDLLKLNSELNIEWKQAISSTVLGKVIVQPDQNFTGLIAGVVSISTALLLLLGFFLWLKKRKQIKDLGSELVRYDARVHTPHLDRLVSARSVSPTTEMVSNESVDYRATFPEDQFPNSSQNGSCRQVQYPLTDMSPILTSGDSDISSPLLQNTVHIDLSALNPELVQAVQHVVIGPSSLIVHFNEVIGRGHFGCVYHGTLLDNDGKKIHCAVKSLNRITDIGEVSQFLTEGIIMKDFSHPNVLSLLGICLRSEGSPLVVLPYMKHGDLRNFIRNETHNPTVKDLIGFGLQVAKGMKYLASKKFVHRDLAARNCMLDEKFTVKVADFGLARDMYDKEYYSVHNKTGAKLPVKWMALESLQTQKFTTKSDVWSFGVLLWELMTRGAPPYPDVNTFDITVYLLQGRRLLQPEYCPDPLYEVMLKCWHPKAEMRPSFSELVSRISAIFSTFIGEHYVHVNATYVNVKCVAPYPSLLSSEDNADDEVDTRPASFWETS
T1 sequence (Q96SW2 whole entry partner): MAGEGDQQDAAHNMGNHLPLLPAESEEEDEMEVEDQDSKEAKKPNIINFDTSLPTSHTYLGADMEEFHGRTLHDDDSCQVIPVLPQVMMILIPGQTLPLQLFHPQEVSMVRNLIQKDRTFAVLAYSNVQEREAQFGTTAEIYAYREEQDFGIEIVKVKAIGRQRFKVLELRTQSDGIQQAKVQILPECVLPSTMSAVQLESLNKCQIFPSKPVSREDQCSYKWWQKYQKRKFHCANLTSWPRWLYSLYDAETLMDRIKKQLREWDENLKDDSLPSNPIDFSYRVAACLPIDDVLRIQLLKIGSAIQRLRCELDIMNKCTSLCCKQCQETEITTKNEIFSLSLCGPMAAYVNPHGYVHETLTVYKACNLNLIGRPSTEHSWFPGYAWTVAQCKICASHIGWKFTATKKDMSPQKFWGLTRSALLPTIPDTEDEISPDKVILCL

The target in assay [2] is T1, Protein cereblon/Hepatocyte growth factor receptor. Description: PROTAC activity at c-Met/CRBN in human A549 cells assessed as induction of c-Met degradation at 100 nM incubated for 24 hrs by Western blotting analysis relative to control. In kind it is cell-based.
For assay [3] the target is unchanged. Description: PROTAC activity at c-Met/CRBN in human EBC-1 cells assessed as induction of c-Met degradation at 100 nM incubated for 24 hrs by Western blotting analysis relative to control. It counts as cell-based.
In a further assay the test system is A549. Nature of the assay: Antiproliferative activity against human A549 cells assessed as cell viability incubated for 72 hrs by MTT assay. Conditions: A549, 72 h. It counts as functional, cell-based. (Formazan colour is commonly taken as a measure of viable cells.)
For a further assay, the system named is MKN-45. Description: Antiproliferative activity against human MKN-45 cells assessed as cell viability incubated for 72 hrs by MTT assay. In kind it is functional, cell-based. As to conditions: MKN-45, 72 h.
A further assay concerns Hs746T. Description: Antiproliferative activity against human Hs746T cells assessed as cell viability incubated for 72 hrs by MTT assay. In kind it is functional, cell-based.
For assay [4], the system named is EBC-1. Nature of the assay: Antiproliferative activity against human EBC-1 cells assessed as cell viability incubated for 72 hrs by MTT assay. In kind it is functional, cell-based. Conditions: EBC-1, 72 h.
The test system of the next assay is HCT-116. Nature of the assay: Antiproliferative activity against human HCT-116 cells assessed as cell viability incubated for 72 hrs by MTT assay. It counts as functional, cell-based. As to conditions: HCT-116, 72 h.
Assay [5] relates to EBC-1. Nature of the assay: Antitumor activity against human EBC-1 cells xenografted BALB/c nude mouse assessed as reduction in tumor volume at 20 mg/kg, ip administered for 7 days. It counts as functional. More on the design: scale not given: the % may be the effect or the level left. As to conditions: time 7 day. A general note: In xenograft studies the graft and the host belong to different species.

For `N#Cc1cccc(-c2ccc(=O)n(Cc3cccc(-c4ncc(OCC5CCN(C(=O)CCCCNC(=O)C6CC7C=CC6C7)CC5)cn4)c3)n2)c1` (stereo not given), the result in assay [1] and in [2] was inactive. Besides, in assay [3], the Activity amounted to 12.4%.
Turning to `N#Cc1cccc(-c2ccc(=O)n(Cc3cccc(-c4ncc(OCC5CCN(C(=O)C(c6ccccc6)c6ccccc6)CC5)cn4)c3)n2)c1`, the result in [1] and in assay [2] was inactive. In assay [3], the Activity stood at 2.7%.
As to `N#Cc1cccc(-c2ccc(=O)n(Cc3cccc(-c4ncc(OCC5CCN(C(=O)CCCCNC(=O)C6c7ccccc7-c7ccccc76)CC5)cn4)c3)n2)c1`, the result in assay [1] and in [2] was inactive. For the same compound, in [3], the Activity amounted to 4.1%.
Regarding `COc1ccc(C(=O)NCCCCN2CCC(COc3cnc(-c4cccc(Cn5nc(-c6cccc(C#N)c6)ccc5=O)c4)nc3)CC2)cc1N1CCC(=O)NC1=O`, the outcome in [1], in assay [2] and in assay [3] was inactive.
Consider `N#Cc1cccc(-c2ccc(=O)n(Cc3cccc(-c4ncc(OCC5CCN(C(=O)CCCCNC(=O)C(c6ccccc6)c6ccccc6)CC5)cn4)c3)n2)c1`, for which the outcome in [1] and in [2] was inactive. Moreover, the Activity in assay [3] was 4.4%.
Turning to `N#Cc1cccc(-c2ccc(=O)n(Cc3cccc(-c4ncc(OCC5CCN(C(=O)CCCCNC(=O)CC67C[C@H]8C[C@@H](C6)C[C@@H](C7)C8)CC5)cn4)c3)n2)c1`, the result in assay [1] and in [2] was inactive. For the same compound, the Activity in assay [3] is 2.8%.
As to `N#Cc1cccc(-c2ccc(=O)n(Cc3cccc(-c4ncc(OCC5CCN(C(=O)CCCCNC(=O)C(C6CCCCC6)C6CCCCC6)CC5)cn4)c3)n2)c1`, the outcome in [1] and in [2] was inactive. The Activity in assay [3] came to 0.9%.
On to `COc1ccc(C(=O)N2CCC3(CCN(C(=O)CCCCCN4CCC(COc5cnc(-c6cccc(Cn7nc(-c8cccc(C#N)c8)ccc7=O)c6)nc5)CC4)CC3)CC2)cc1N1CCC(=O)NC1=O`, for which the outcome in [1] and in [2] was inactive. In assay [3], the Activity was 79.1%.
With `COc1ccc(C(=O)N2CCC3(CCN(C(=O)CN4CCC(COc5cnc(-c6cccc(Cn7nc(-c8cccc(C#N)c8)ccc7=O)c6)nc5)CC4)C3)CC2)cc1N1CCC(=O)NC1=O`, the result in assay [1] and in [2] was inactive. Besides, in assay [3], the Activity was 74.6%.
In the case of `COc1ccc(C(=O)NCCCCCCN2CCC(COc3cnc(-c4cccc(Cn5nc(-c6cccc(C#N)c6)ccc5=O)c4)nc3)CC2)cc1N1CCC(=O)NC1=O`, the result in assay [1], in [2] and in assay [3] was inactive.
As for `N#Cc1cccc(-c2ccc(=O)n(Cc3cccc(-c4ncc(OCC5CCN(C(=O)C(C6CCCCC6)C6CCCCC6)CC5)cn4)c3)n2)c1`, the outcome in assay [1], in [2] and in assay [3] was inactive.
As to `COc1ccc(C(=O)N2CCC3(CC2)CN(C(=O)CN2CCC(COc4cnc(-c5cccc(Cn6nc(-c7cccc(C#N)c7)ccc6=O)c5)nc4)CC2)C3)cc1N1CCC(=O)NC1=O`, the outcome in assay [1] and in assay [2] was inactive. Besides, the Activity in assay [3] amounted to 37.7%.
With `COc1ccc(C(=O)N2CCC3(CCN(C(=O)CN4CCC(COc5cnc(-c6cccc(Cn7nc(-c8cccc(C#N)c8)ccc7=O)c6)nc5)CC4)C3)C2)cc1N1CCC(=O)NC1=O` (stereo not given), the result in assay [1] and in assay [2] was inactive. Further, in assay [3], the Activity was found to be 54.1%.
With `N#Cc1cccc(-c2ccc(=O)n(Cc3cccc(-c4ncc(OCC5CCN(C(=O)C[C@]67CC8CC(C[C@H](C8)C6)C7)CC5)cn4)c3)n2)c1`, the result in [1] and in assay [2] was inactive. Also, the Activity in assay [3] amounted to 1.5%.
Take `COc1ccc(C(=O)N2CC3CC(CN(C(=O)CN4CCC(COc5cnc(-c6cccc(Cn7nc(-c8cccc(C#N)c8)ccc7=O)c6)nc5)CC4)C3)C2)cc1N1CCC(=O)NC1=O`: the result in [1], in [2] and in assay [3] was inactive.
As to `CC(C)Cc1ccc([C@H](C)C(=O)N2CCC(COc3cnc(-c4cccc(Cn5nc(-c6cccc(C#N)c6)ccc5=O)c4)nc3)CC2)cc1`, the result in assay [1] and in assay [2] was inactive. Further, the Activity in assay [3] stood at 23.3%.
For the compound `N#Cc1cccc(-c2ccc(=O)n(Cc3cccc(-c4ncc(OCC5CCN(C(=O)C6CC7C=CC6C7)CC5)cn4)c3)n2)c1` (stereo not given), the outcome in assay [1] and in assay [2] was inactive. Also, the Activity in [3] came out at 22.4%.
On to `COc1ccc(C(=O)N2CCN(C(=O)CN3CCC(COc4cnc(-c5cccc(Cn6nc(-c7cccc(C#N)c7)ccc6=O)c5)nc4)CC3)CC2)cc1N1CCC(=O)NC1=O`, for which the result in assay [1], in assay [2] and in assay [3] was inactive.
In the case of `COc1ccc(C(=O)N2CCC3(CCN(C(=O)CCN4CCC(COc5cnc(-c6cccc(Cn7nc(-c8cccc(C#N)c8)ccc7=O)c6)nc5)CC4)CC3)CC2)cc1N1CCC(=O)NC1=O`, the outcome in [1] and in assay [2] was inactive. Besides, the Activity in [3] turned out to be 85.6%.
For `CN1CCC(COc2cnc(-c3cccc(Cn4nc(-c5cccc(C#N)c5)ccc4=O)c3)nc2)CC1` [TEPOTINIB], the pIC50 in the assay with A549 was 4.87; in the assay on MKN-45 it was 7.20; with Hs746T, 7.42; in the assay with EBC-1 [4] it was 7.92; with HCT-116, 5.31. The Activity in the assay with EBC-1 [5] is 74.5%.
For `COc1ccc(C(=O)N2CC3CN(C(=O)CN4CCC(COc5cnc(-c6cccc(Cn7nc(-c8cccc(C#N)c8)ccc7=O)c6)nc5)CC4)CC3C2)cc1N1CCC(=O)NC1=O` (stereo not given), the result in assay [1], in assay [2] and in [3] was inactive.
For `N#Cc1cccc(-c2ccc(=O)n(Cc3cccc(-c4ncc(OCC5CCN(C(=O)C6c7ccccc7-c7ccccc76)CC5)cn4)c3)n2)c1`, the outcome in [1] and in [2] was inactive. Besides, in assay [3], the Activity worked out at 13.4%.
Regarding `CC(C)Cc1ccc([C@H](C)C(=O)NCCCCC(=O)N2CCC(COc3cnc(-c4cccc(Cn5nc(-c6cccc(C#N)c6)ccc5=O)c4)nc3)CC2)cc1`, the result in assay [1], in assay [2] and in [3] was inactive.
On to `COc1ccc(C(=O)N2CCC3(CCN(C(=O)CCCCN4CCC(COc5cnc(-c6cccc(Cn7nc(-c8cccc(C#N)c8)ccc7=O)c6)nc5)CC4)CC3)CC2)cc1N1CCC(=O)NC1=O`, for which the result in assay [1] and in [2] was inactive. In [3], the Activity was determined as 83.7%.
